Calls of active or inactive are those of the source. The calls are words filed in the database; no cut-off is given here.
Assays:
[1] = system: Spodoptera litura; assay: Insecticidal activity against Spodoptera litura assessed as mortality at 500 mg/L after 6 days; assay type: functional; conditions: 144 h
[2] = system: Sf9; assay: Cytotoxicity against Spodoptera frugiperda (fall armyworm) Sf9 cells at 10 uM after 72 hr by trypan blue dye exclusion test; assay type: functional, cell-based
[3] = system: Sf9; assay: Induction of cell growth in Spodoptera frugiperda (fall armyworm) Sf9 cells at 10 uM after 72 hr by trypan blue dye exclusion test; assay type: functional, cell-based
[4] = system: Sf9; assay: Cytotoxicity against Spodoptera frugiperda (fall armyworm) Sf9 cells at 0.1 to 1 uM after 72 hr by trypan blue dye exclusion test; assay type: functional, cell-based
[5] = system: Spodoptera litura; assay: Inhibition of mitochondrial respiration in Spodoptera litura mitochondria assessed as oxygen consumption at 20 uM at 3:1 minute after addition of 0.2 mM of rotenone and 0.1 mM of succinate (reference value: 0.5%); assay type: functional; set-up: scale not given: the % may be the effect or the level left
[6] = system: Spodoptera litura; assay: Inhibition of mitochondrial respiration in Spodoptera litura mitochondria assessed as oxygen consumption at 20 uM at 2:1 minute after addition of 0.1 mM of ADP (reference value: 54.4%); assay type: functional; set-up: scale not given: the % may be the effect or the level left
[7] = system: Spodoptera litura; assay: Inhibition of mitochondrial respiration in Spodoptera litura mitochondria assessed as oxygen consumption at 20 uM at 1:1 minute after addition of 0.1 mM of ADP (reference value: 12.2%); assay type: functional; set-up: scale not given: the % may be the effect or the level left
[8] = system: Sf9; assay: Cytotoxicity against Spodoptera frugiperda (fall armyworm) Sf9 cells assessed as formation of granular structures at 1 to 10 uM after 72 hr by microscopic analysis; assay type: functional, cell-based
[9] = system: Sf9; assay: Cytotoxicity against Spodoptera frugiperda (fall armyworm) Sf9 cells at 0.01 to 10 uM after 72 hr by trypan blue dye exclusion test; assay type: functional, cell-based
[10] = system: Sf9; assay: Cytotoxicity against Spodoptera frugiperda (fall armyworm) Sf9 cells at 1 to 10 uM after 72 hr by trypan blue dye exclusion test; assay type: functional, cell-based
[11] = system: Sf9; assay: Cytotoxicity against Spodoptera frugiperda (fall armyworm) Sf9 cells at 0.1 to 10 uM after 72 hr by trypan blue dye exclusion test; assay type: functional, cell-based
[12] = system: Sf9; assay: Cytotoxicity against Spodoptera frugiperda (fall armyworm) Sf9 cells at 5 uM after 72 hr by trypan blue dye exclusion test; assay type: functional, cell-based

Row | SMILES | mortality at 500 µg/mL [1] | Activity [2] | further results
1 | CC(COc1cc(Cl)c(OCCCOc2ccc(Cl)cc2)c(Cl)c1)=C(Cl)Cl | 0% | inactive | 
2 | FC(F)(F)c1ccc(OCCCOc2c(Cl)cc(OC/C(Cl)=C/Cl)cc2Cl)nc1 | 0% | inactive | 
3 | CNC(=O)ON=C(C)SC |  |  | Activity [3]: Active
4 | FC(F)(F)c1ccc(OCCCOc2ccc(OCC=C(Cl)Cl)cc2)nc1 | 0% | inactive | 
5 | O=c1[nH]cc(F)c(=O)[nH]1 |  |  | Activity [4]: Active
6 | FC(F)(F)c1ccc(OCCCOc2c(Cl)cc(OCC=C(Cl)Cl)cc2Cl)nc1 [PYRIDALYL] | 100% |  | Activity [5]: 0.5%; Activity [6]: 53.3%; Activity [7]: 12.2%; Activity [8]: Active; Activity [9]: Active
7 | CC[C@H]1/C=C/C=C/C[C@@H](C)[C@H](O)[C@@](C)(O)C(=O)[C@@H](C)[C@H](O)[C@@H](C)C(=O)[C@@H](C)[C@H](O)[C@@H](C)/C=C/C(=O)O[C@@H]2[C@H](C)[C@H](CC1)O[C@]1(CC[C@H](C)[C@H](C[C@@H](C)O)O1)[C@H]2C |  |  | Activity [10]: Active
8 | ClC(Cl)=C(Cl)COc1cc(Cl)c(OCCCOc2ccc(Cl)cc2)c(Cl)c1 | 0% | inactive | 
9 | CCOCn1c(-c2ccc(Cl)cc2)c(C#N)c(Br)c1C(F)(F)F |  |  | Activity [11]: Active
10 | COP(=O)(NC(C)=O)SC (stereo unspecified) |  |  | Activity [3]: Active
11 | COc1ccc(C[C@H]2NC[C@H](O)[C@H]2OC(C)=O)cc1 |  | Active | 
12 | C[C@@]1(CO)[C@H](O)CC[C@@]2(C)[C@H]1CC[C@H]1C[C@@H]3C[C@@]12CC[C@]3(O)CO |  |  | Activity [12]: inactive
13 | O=[N+]([O-])c1ccc(O)c([N+](=O)[O-])c1 |  | Active | 
14 | C=C(C)[C@H]1Cc2c(ccc3c2O[C@@H]2COc4cc(OC)c(OC)cc4[C@@H]2C3=O)O1 |  |  | Activity [10]: Active
15 | ClC(Cl)=CCOc1cc(Cl)c(OCCCOc2ccc(Cl)cc2)c(Cl)c1 | 100% | Active | 
16 | CC1(C)C(C=C(Cl)Cl)C1C(=O)OC(C#N)c1cccc(Oc2ccccc2)c1 (stereo unspecified) |  |  | Activity [3]: Active

Source: ChEMBL document CHEMBL3045850, “Effects of Pyridalyl, a Novel Insecticidal Agent, on Cultured Sf9 Cells” (2005)
